Assay results reported in patent US8202856B2 (Merck Serono SA, priority 2007, dated 2012).
pEC50: −log10 of the molar value.

Tests used:
S1P1 receptor = S1P1 receptor (Homo sapiens, UniProt P21453); experiment: 35S-GTPγS binding, membranes from CHO cells expressing S1P1; assay type: biochemical; conditions: CHO cell membranes expressing S1P1
Procedure, shortened: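 Membranes (1–10 μg) from CHO cells expressing the receptor were incubated with compound in 20 mM HEPES pH 7.4, 10 mM MgCl2, 140 mM NaCl, 1.7 μM GDP, saponin and 0.2% BSA. [35S]GTPγS (added at 1.5 nM) was then bound for 60 min at 30 °C. Membrane-bound radioactivity, averaged over triplicates, is expressed relative to S1P activation (n=2).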

S1P3 receptor = S1P3 receptor (Homo sapiens, UniProt Q99500); experiment: 35S-GTPγS binding, membranes from CHO cells expressing S1P3; assay type: biochemical; conditions: CHO cell membranes expressing S1P3
Chain of S1P3 receptor (Q99500 whole entry): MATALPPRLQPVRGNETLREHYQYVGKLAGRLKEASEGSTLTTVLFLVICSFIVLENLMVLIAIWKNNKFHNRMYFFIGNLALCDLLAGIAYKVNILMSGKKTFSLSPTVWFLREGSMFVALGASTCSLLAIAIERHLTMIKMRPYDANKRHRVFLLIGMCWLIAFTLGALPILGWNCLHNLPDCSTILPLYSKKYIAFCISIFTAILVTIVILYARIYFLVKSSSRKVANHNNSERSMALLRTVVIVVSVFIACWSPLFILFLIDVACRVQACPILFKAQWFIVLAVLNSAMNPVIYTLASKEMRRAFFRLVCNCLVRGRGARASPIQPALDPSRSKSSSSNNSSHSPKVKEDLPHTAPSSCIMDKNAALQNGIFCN
Method: Receptor binding assay: Membranes were prepared from CHO cells expressing S1P1 or S1P3 for use in ligand and 35S-GTPTS binding studies. Cells were suspended in 50 mM TRIS, pH 7.4, 2 mM EDTA, 250 mM Sucrose (buffer A) and 1× Complete protease inhibitor cocktail (Roche), and disrupted at 4° C. by nitrogen decompression using a cell disruption bomb (Parr Instrument). Following centrifugation at 1000 RPM for 10 min at 4° C., the supernatant was suspended in buffer A and centrifuged again at 19000 RPM for 60 min at 4° C. The pellet was then suspended in 10 mM HEPES, pH 7.4, 1 mM EDTA, 250 mM Sucrose (Buffer B), and 1× Complete EDTA-free protease inhibitor cocktail and homogenized using a potter. Membranes were flash frozen in liquid nitrogen and stored at −80° C. [33P]sphingosine 1-phosphate (3000 Ci/mmol; American Radiolabeled Chemicals, Inc.) was added to test compounds in DMSO. Membranes and WGA SPA beads (GE Healthcare) were added to give a final volume of 100 μl in 96-well plates with assay concentrations of […] [33P]sphingosine 1-phosphate (respectively for S1P1 or S1P3), 50 mM HEPES, pH 7.5, 5 mM MgCl2, 100 mM NaCl, 0.4% fatty acid-free BSA, 1-5 μg/well of proteins and 100 μg/well of WGA SPA beads. Binding was performed for 60 min at room temperature on a shaker and bound radioactivity was measured on a PerkinElmer 1450 MicroBeta counter. Specific binding was calculated by subtracting remaining radioactivity in the presence of 1000-fold excess of unlabeled S1P. Binding data were analyzed using the GraphPad Prism program.
Measurements of ^35S-GTPγS Binding: Membranes (1 to 10 μg protein) prepared as described above, were incubated in 96-well Scintiplates (PerkinElmer) with test compounds diluted in DMSO, in 180 μl of 20 mM HEPES, pH 7.4, 10 mM MgCl2, 2 μg/well Saponin, 0.2% fatty acid free BSA (Assay buffer), 140 mM NaCl and 1.7 μM GDP. The assay was initiated with the addition of 20 μl of 1.5 nM [35S]-GTPγS (1100 Ci/mmol; GE Healthcare) in assay buffer. After 60 min incubation at 30° C. on a shaker, plates were centrifuged for 10 min at 2000 RPM. Supernatant was discarded and membrane bound radioactivity was measured on a PerkinElmer 1450 MicroBeta counter. Triplicate samples were averaged and expressed as response relative to S1P activation in absence of compound (n=2).

Chain of S1P1 receptor (P21453 whole entry): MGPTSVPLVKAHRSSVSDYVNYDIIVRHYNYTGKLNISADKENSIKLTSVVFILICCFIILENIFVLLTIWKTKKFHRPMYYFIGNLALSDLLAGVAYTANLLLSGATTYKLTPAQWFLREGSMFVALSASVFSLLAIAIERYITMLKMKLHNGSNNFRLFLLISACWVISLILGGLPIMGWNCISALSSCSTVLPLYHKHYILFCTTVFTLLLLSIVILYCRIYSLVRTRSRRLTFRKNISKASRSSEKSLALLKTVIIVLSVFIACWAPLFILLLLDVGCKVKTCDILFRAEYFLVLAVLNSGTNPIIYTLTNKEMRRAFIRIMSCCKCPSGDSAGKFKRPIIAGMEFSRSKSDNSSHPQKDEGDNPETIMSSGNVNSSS

SMILES	pEC50 (S1P1 receptor)	pEC50 (S1P3 receptor)
COCc1c(-c2nc(-c3ccc4[nH]ncc4c3)no2)nnn1-c1ccccc1F [Example 87, 5-{5-[1-(2-fluorophenyl)-5-(methoxymethyl)-1H-1,2,3-triazol-4-yl]-1,2,4-oxadiazol-3-yl}-1H-indazole]	7.01	< 4.70
COCc1c(-c2nc(-c3ccccc3)no2)nnn1-c1ccccc1F [Example 15, 5-[1-(2-Fluorophenyl)-5-(methoxymethyl)-1H-1,2,3-triazole-4-yl]-3-phenyl-1,2,4-oxadiazole]	6.41	< 4.52
Cc1cccc(-c2noc(-c3nnn(-c4ccccc4F)c3-c3ccncc3)n2)c1 [Example 104, 4-{1-(2-fluorophenyl)-4-[3-(3-methylphenyl)-1,2,4-oxadiazol-5-yl]-1H-1,2,3-triazol-5-yl}pyridine]	7.85	6.18
CCCCc1c(-c2nc(-c3ccccc3)no2)nnn1-c1ccccc1F [Example 17, 5-[5-Butyl-1-(2-fluorophenyl)-1H-1,2,3-triazole-4-yl]-3-phenyl-1,2,4-oxadiazole]	6.84	5.31
CS(=O)(=O)c1cccc(-c2noc(-c3nnn(-c4ccccc4F)c3-c3ccncc3)n2)c1 [Example 52, 4-(1-(2-fluorophenyl)-4-{3-[3-(methylsulfonyl)phenyl]-1,2,4-oxadiazol-5-yl}-1H-1,2,3-triazol-5-yl)pyridine]	7.48	< 4.70
COCc1c(-c2nc(-c3cccnc3)no2)nnn1-c1ccccc1F [Example 47, 3-{5-[1-(2-fluorophenyl)-5-(methoxymethyl)-1H-1,2,3-triazol-4-yl]-1,2,4-oxadiazol-3-yl}pyridine]	6.17	< 4.70
Fc1ccccc1-n1nnc(-c2nc(-c3ccc4[nH]ncc4c3)no2)c1-c1ccncc1 [Example 116, 5-{5-[1-(2-fluorophenyl)-5-pyridin-4-yl-1H-1,2,3-triazol-4-yl]-1,2,4-oxadiazol-3-yl}-1H-indazole]	8.40	6.79
Fc1ccccc1-c1noc(-c2nnn(-c3ccccc3F)c2-c2ccncc2)n1 [Example 32, 4-{1-(2-Fluorophenyl)-4-[3-(2-fluorophenyl)-1,2,4-oxadiazole-5-yl]-1H-1,2,3-triazole-5-yl}pyridine]	7.70	5.92
Fc1cccc(-c2noc(-c3nnn(-c4ccccc4F)c3-c3ccncc3)n2)c1 [Example 83, 4-{1-(2-fluorophenyl)-4-[3-(3-fluorophenyl)-1,2,4-oxadiazol-5-yl]-1H-1,2,3-triazol-5-yl}pyridine]	7.77	6.62
COCc1c(-c2nc(-c3cc(F)ccc3F)no2)nnn1-c1ccccc1F [Example 10, 3-(2,5-Difluorophenyl)-5-[1-(2-fluorophenyl)-5-(methoxymethyl)-1H-1,2,3-triazole-4-yl]-1,2,4-oxadiazole]	7.35	< 4.52
OC1CCN(Cc2ccc(-c3noc(-c4nnn(-c5ccccc5F)c4-c4ccncc4)n3)cc2)C1 (stereo not shown) [Example 142, 1-(4-{5-[1-(2-fluorophenyl)-5-pyridin-4-yl-1H-1,2,3-triazol-4-yl]-1,2,4-oxadiazol-3-yl}benzyl)pyrrolidin-3-ol]	7.89	6.08
COCCc1c(-c2nc(-c3ccccc3F)no2)nnn1-c1ccccc1F [Example 49, 3-(2-fluorophenyl)-5-[1-(2-fluorophenyl)-5-(2-methoxyethyl)-1H-1,2,3-triazol-4-yl]-1,2,4-oxadiazole]	6.92	4.88
Fc1ccc(F)c(-c2noc(-c3nnn(-c4ccccc4F)c3CN3CCOCC3)n2)c1 [Example 39, 4-{[4-[3-(2,5-difluorophenyl)-1,2,4-oxadiazol-5-yl]-1-(2-fluorophenyl)-1H-1,2,3-triazol-5-yl]methyl}morpholine]	7.04	6.13
Cc1c(-c2nc(-c3ccccc3)no2)nnn1-c1ccccc1F [Example 34, 5-[1-(2-fluorophenyl)-5-methyl-1H-1,2,3-triazol-4-yl]-3-phenyl-1,2,4-oxadiazole]	5.96	< 4.52
CCc1c(-c2nc(-c3ccccc3)no2)nnn1-c1ccccc1F [Example 5, 5-[5-Ethyl-1-(2-fluorophenyl)-1H-1,2,3-triazole-4-yl]-3-phenyl-1,2,4-oxadiazole]	6.06	< 4.52
COc1ccccc1-c1noc(-c2nnn(-c3ccccc3F)c2-c2ccccc2)n1 [Example 22, 5-[1-(2-Fluorophenyl)-5-phenyl-1H-1,2,3-triazole-4-yl]-3-(2-methoxyphenyl)-1,2,4-oxadiazole]	6.85	5.16
COCCc1c(-c2nc(-c3cccnc3)no2)nnn1-c1ccccc1F [Example 46, 3-{5-[1-(2-fluorophenyl)-5-(2-methoxyethyl)-1H-1,2,3-triazol-4-yl]-1,2,4-oxadiazol-3-yl}pyridine]	6.29	< 4.70
Fc1ccc(F)c(-c2noc(-c3nnn(-c4ccccc4F)c3C3CC3)n2)c1 [Example 69, 5-[5-cyclopropyl-1-(2-fluorophenyl)-1H-1,2,3-triazol-4-yl]-3-(2,5-difluorophenyl)-1,2,4-oxadiazole]	6.94	< 4.70
Fc1ccc(-c2noc(-c3nnn(-c4ccccc4F)c3-c3ccncc3)n2)cc1F [Example 97, 4-[4-[3-(3,4-difluorophenyl)-1,2,4-oxadiazol-5-yl]-1-(2-fluorophenyl)-1H-1,2,3-triazol-5-yl]pyridine]	7.22	< 4.70
Oc1ccc(-c2noc(-c3nnn(-c4ccccc4F)c3-c3ccccc3)n2)c(F)c1 [Example 18, 3-Fluoro-4-{5-[1-(2-fluorophenyl)-5-phenyl-1H-1,2,3-triazole-4-yl]-1,2,4-oxadiazole-3-yl}phenol]	7.66	6.66
Fc1ccccc1-n1nnc(-c2nc(-c3cccc(F)c3F)no2)c1-c1ccncc1 [Example 101, 4-[4-[3-(2,3-difluorophenyl)-1,2,4-oxadiazol-5-yl]-1-(2-fluorophenyl)-1H-1,2,3-triazol-5-yl]pyridine]	8.05	6.67
COCc1c(-c2nc(-c3cccc(S(C)(=O)=O)c3)no2)nnn1-c1ccccc1F [Example 68, 5-[1-(2-fluorophenyl)-5-(methoxymethyl)-1H-1,2,3-triazol-4-yl]-3-[3-(methylsulfonyl)phenyl]-1,2,4-oxadiazole]	6.23	< 4.70
COC(=O)c1cccc(-c2noc(-c3nnn(-c4ccccc4F)c3-c3ccccc3)n2)c1 [Example 20, Methyl 3-{5-[1-(2-fluorophenyl)-5-phenyl-1H-1,2,3-triazole-4-yl]-1,2,4-oxadiazole-3-yl}benzoate]	7.08	5.07
Fc1ccccc1-c1noc(-c2nnn(-c3ccccc3F)c2C2CCOCC2)n1 [Example 59, 3-(2-fluorophenyl)-5-[1-(2-fluorophenyl)-5-(tetrahydro-2H-pyran-4-yl)-1H-1,2,3-triazol-4-yl]-1,2,4-oxadiazole]	6.81	< 4.70
CCc1c(-c2nc(-c3cc(F)ccc3F)no2)nnn1-c1ccccc1F [Example 7, 3-(2,5-Difluorophenyl)-5-[5-ethyl-1-(2-fluorophenyl)-1H-1,2,3-triazole-4-yl]-1,2,4-oxadiazole]	–	< 4.52
